Measurements from PubChem BioAssay (NCI).
Where “and” joins values, the source holds several entries; their conditions need not be identical. Equal entries are not always repeated.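 All cell lines were grown in 96-well plates and treated with compound for 48 hours. GI50 = concentration required for 50% inhibition of growth. TGI marks complete inhibition of growth.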

How the values were obtained:
Test in all cases: growth of human tumour cells (NCI), 48 h
[1] = test system: SK-OV-3 ovarian
[2] = test system: NCI-H23 lung
[3] = test system: HCT-116 colon
[4] = test system: NCI/ADR-RES ovarian
[5] = test system: A549 NSCLC
[6] = test system: IGROV1 ovarian
[7] = test system: HT29 colon
[8] = test system: COLO 205 colon
[9] = test system: EKVX NSCLC
[10] = test system: CAKI-1 renal

Row | Compound | TGI [1] | TGI [2] | TGI [3] | TGI [4] | TGI [5] | TGI [6] | TGI [7] | TGI [8] | TGI [9] | TGI [10] | GI50 [2] | GI50 [3] | GI50 [5] | GI50 [7] | GI50 [8] | GI50 [9] | GI50 [10] | GI50 [1] | GI50 [4] | GI50 [6]
1 | COc1cc(OC)c(OC)cc1/C=C/c1ccccn1 | > 10 µM | > 10 µM | > 10 µM | > 10 µM | > 10 µM | > 10 µM | > 10 µM | > 10 µM | > 10 µM | > 10 µM |  |  |  |  |  |  |  |  |  | 
2 | COC1C(OC(=O)/C=C/C=C/C=C/C=C/C(=O)O)CCC2(CO2)C1C1(C)OC1CC=C(C)C (stereo unspecified) | > 84.5 µM | > 83.7 µM | > 100 µM | 97.7 µM | > 100 µM | > 95.1 µM |  | 26.1 µM | > 82.9 µM | > 100 µM | 0.193 µM | 0.12 µM | 0.308 µM | 0.181 µM | 0.157 µM | 0.436 µM | 0.414 µM |  |  | 
3 | CCCN1CCC(Oc2cc(Nc3nc(Nc4cccc(F)c4C(N)=O)c4cc[nH]c4n3)c(OC)cc2Cl)CC1 | 14 µM | 8.26 µM | 5.5 µM | 8.57 µM | 5.95 µM | 9.22 µM | 1.6 µM | 0.806 µM | 7.41 µM | 7.64 µM | 3.49 µM | 2.16 µM | 2.64 µM | 0.565 µM | 0.417 µM | 3.1 µM | 3.58 µM | 4.87 µM | 3.73 µM | 3.86 µM
4 | COCCn1c(Nc2ccc(C(=O)NO)cc2)nc2ccccc21 | 20.2 µM | 16.3 µM | 6.54 µM | 4.84 µM | 23 µM | 15.2 µM | > 100 µM | 7.88 µM | 21.4 µM | 6.24 µM | 4.43 µM | 2.11 µM | 4.9 µM | 2.97 µM | 2.75 µM | 1.89 µM | 1.37 µM | 3.45 µM | 1.3 µM | 2.39 µM
5 | CC(=O)Oc1ccc2c(c1)O/C(=C\c1ccc(N(C)C)cc1)C2=O | > 100 µM | > 100 µM | > 100 µM | > 100 µM | > 100 µM | > 100 µM | > 100 µM | > 100 µM | > 100 µM | > 100 µM |  |  |  |  |  |  |  |  |  | 
6 | CN(C)CCN1C(=O)c2cccc3cc(N)cc(c23)C1=O | 38.4 µM and 17.4 µM | 22.7 µM and 14.1 µM | > 60.2 µM and 9.87 µM | > 67.2 µM and 12.2 µM | > 21.5 µM and 9.09 µM | > 44.1 µM and 20.8 µM | 12 µM and 14.1 µM | 14.7 µM and 7.19 µM | 39.7 µM and 15.3 µM | 11.1 µM and 7.59 µM | 3.43 µM | 3.21 µM | 0.912 µM and 1.51 µM | 2.75 µM | 2.23 µM | 4.22 µM | 1.77 µM and 1.11 µM |  |  | 2.68 µM
7 | O=C(c1ccccc1)c1nc2ccc(Cl)cc2cc1C(Br)Br | 2.73 µM | 1.11 µM | 0.34 µM | 0.505 µM | 3.31 µM | 4.38 µM | 0.743 µM | 1.6 µM | 1.69 µM | 1.75 µM |  |  |  |  |  |  |  |  |  | 
8 | CC(C)CC(NC(=O)C(O)C(N)Cc1ccccc1)C(=O)O (stereo unspecified) | > 100 µM | > 100 µM | > 100 µM | > 100 µM | > 100 µM | > 100 µM | > 100 µM | > 100 µM | > 100 µM | > 100 µM |  |  |  |  |  |  |  |  |  | 
9 | CC(C)(Sc1cc(C(C)(C)C)c(O)c(C(C)(C)C)c1)Sc1cc(C(C)(C)C)c(O)c(C(C)(C)C)c1 | > 100 µM | > 100 µM | > 100 µM | > 100 µM | > 100 µM | > 100 µM | > 100 µM | > 100 µM | > 100 µM | > 100 µM |  |  |  |  |  |  |  |  |  | 
10 | Cc1cc(NC(=O)NCCCOc2ccc(N3C(N)=NC(N)=NC3(C)C)cc2Cl)ccc1S(=O)(=O)F | > 82.3 µM | > 66.8 µM | > 100 µM | > 100 µM | > 100 µM | > 68.8 µM | 53.9 µM | 17.5 µM | > 100 µM | > 100 µM | 0.951 µM | 0.37 µM | 0.412 µM | 0.333 µM | 1.17 µM | 1.32 µM | > 63.7 µM | 9.72 µM | > 100 µM | 0.332 µM
11 | COc1cccc(C2CC(C)(O)Oc3cc4c(cc32)OCO4)c1 (stereo unspecified) | 67.2 µM | > 100 µM | 28.5 µM | 59.3 µM | > 100 µM | > 100 µM | 28.8 µM | 43.1 µM | > 100 µM | > 100 µM |  |  |  |  |  |  |  |  |  | 
12 | CC[C@@H]1C(=O)N(C)c2cnc(Nc3ccc(C(=O)NC4CCC(N5CCN(CC6CC6)CC5)CC4)cc3OC)nc2N1C(C)C (stereo partly specified) | 1.37 µM and 0.904 µM | > 10 µM and 2.99 µM | > 3.83 µM and 1.68 µM | > 10 µM and 28.9 µM |  | > 10 µM and 7.22 µM | 2.07 µM and 1.35 µM | 0.276 µM and 0.268 µM | > 10 µM and 21.6 µM | > 10 µM and 10.7 µM | 0.0158 µM and 0.028 µM | 0.0136 µM and 0.022 µM | 0.0308 µM and 0.0348 µM | 0.00436 µM and < 0.01 µM | 0.00438 µM and < 0.01 µM | 0.0749 µM and 0.234 µM | 0.109 µM and 0.39 µM | 0.046 µM and 0.0354 µM | 0.249 µM and 0.245 µM | 0.0418 µM and 0.0524 µM
13 | CN1CCC2(CC1)C(=O)Nc1cc(NC(=O)c3ccc4c(c3)C[C@@H]3C(C)(C)[C@H](O)[C@H](F)C[C@@]3(C)O4)ccc12 | 27.3 µM | 42.5 µM | 17.2 µM | > 100 µM | 37.2 µM | > 100 µM | 36.8 µM | 7.36 µM | > 100 µM | 18.7 µM | 10.6 µM | 1.35 µM | 2.74 µM | 2.94 µM | 1.84 µM | 29.8 µM | 1.34 µM | 1.71 µM | > 100 µM | 13.1 µM
14 | CCOC(=O)c1sc2nc(=S)[nH]c(NC(N)=S)c2c1C | 61.3 µM | 37.1 µM |  | 29.9 µM | 90.7 µM | > 100 µM | 52.9 µM | 48.4 µM | 30.6 µM | 61.7 µM | 14.8 µM |  | 31.2 µM | 20.1 µM | 18.6 µM | 2.49 µM | 31.4 µM | 20.6 µM | 12.7 µM | 31.5 µM
15 | O=C(O)c1c2c(c(O)c3c1CN(C1CCCCC1)CO3)OCN(C1CCCCC1)C2 | > 100 µM | > 100 µM | > 100 µM | > 100 µM | > 100 µM | > 100 µM | > 100 µM | > 100 µM | > 100 µM | > 100 µM |  |  |  |  |  |  |  |  |  | 
16 | COc1ccc(CC(C)NCC(O)c2ccc(O)c(NC=O)c2)cc1 (stereo unspecified) | > 100 µM | > 100 µM | > 100 µM | > 100 µM | > 100 µM | > 100 µM | > 100 µM | > 100 µM | > 100 µM | > 100 µM |  |  |  |  |  |  |  |  |  | 
